According to US6737383B1, “Herbicidal oxadiazolidines” (priority 1999, dated 2004):

Legend:
[1] = tested on: bedstraw; test: Test B pre/postemergence bedstraw; type: in vivo, Galium aparine
Procedure, shortened: (§1)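 Herbicidal effect was estimated by eye on a ten-point control scale after plants spent twelve to sixteen days in a greenhouse following soil or foliar treatment. Foliar sprays targeted plants at one to four leaves; all doses were formulated in a non-phytotoxic solvent with surfactant.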

[2] = tested on: blackgrass; test: Test B pre/postemergence blackgrass; type: in vivo, Alopecurus myosuroides
Procedure, shortened: as §1

[3] = tested on: surinam grass; test: Test B pre/postemergence surinam grass; type: in vivo, Brachiaria decumbens
Procedure, shortened: as §1

[4] = tested on: cocklebur; test: Test B pre/postemergence cocklebur; type: in vivo, Xanthium strumarium
Procedure, shortened: as §1

[5] = tested on: corn; test: Test B pre/postemergence corn; type: in vivo, Zea mays
Procedure, shortened: as §1

[6] = tested on: crabgrass; test: Test B pre/postemergence crabgrass; type: in vivo, Digitaria sanguinalis
Procedure, shortened: as §1

[7] = tested on: giant foxtail; test: Test B pre/postemergence giant foxtail; type: in vivo, Setaria faberii
Procedure, shortened: as §1

[8] = tested on: morningglory; test: Test B pre/postemergence morningglory; type: in vivo, Ipomoea hederacea
Procedure, shortened: as §1

[9] = tested on: pigweed; test: Test B pre/postemergence pigweed; type: in vivo, Amaranthus retroflexus
Procedure, shortened: as §1

[10] = tested on: rape; test: Test B pre/postemergence rape; type: in vivo, Brassica napus
Procedure, shortened: as §1

[11] = tested on: soybean; test: Test B pre/postemergence soybean; type: in vivo, Glycine max
Procedure, shortened: as §1

[12] = tested on: sugar beet; test: Test B pre/postemergence sugar beet; type: in vivo, Beta vulgaris
Procedure, shortened: as §1

[13] = tested on: velvetleaf; test: Test B pre/postemergence velvetleaf; type: in vivo, Abutilon theophrasti
Procedure, shortened: as §1

[14] = tested on: wheat; test: Test B pre/postemergence wheat; type: in vivo, Triticum aestivum
Procedure, shortened: as §1

[15] = tested on: wild oat; test: Test B pre/postemergence wild oat; type: in vivo, Avena fatua
Procedure, shortened: as §1

[16] = tested on: purple nutsedge; test: Test B pre/postemergence purple nutsedge; type: in vivo, Cyperus rotundus
Procedure, shortened: as §1

[17] = Postemergence, Rate 125 g/ha, scale of 0 to 10 where 0 is no effect and 10 is complete control
[18] = Postemergence, Rate 500 g/ha, scale 0 (no effect) to 10 (complete control)
[19] = Preemergence, Rate 250 g/ha, scale 0 (no effect) to 10 (complete control)
[20] = Rate 62 g/ha, Preemergence, scale 0 to 10
[21] = Rate 125 g/ha, Preemergence, scale 0 to 10 (0 no effect, 10 complete control)
[22] = Rate 500 g/ha, Preemergence, scale 0 to 10 (0 no effect, 10 complete control)
[23] = Postemergence, Rate 62 g/ha, scale 0 to 10, 0 is no effect, 10 is complete control
[24] = Rate 250 g/ha, Postemergence, scale 0 to 10, 0 is no effect, 10 is complete control

Compound: C#CC(C)n1c(=O)on(C(=O)N(c2ccc(F)cc2)C(C)C)c1=O (stereo not shown) [Compound 763]
- Bedstraw plant response rating [1, 17]: 0
- Bedstraw plant response rating [1, 18]: 4
- Bedstraw plant response rating [1, 19]: 7
- Bedstraw plant response rating [1, 20]: 0
- Bedstraw plant response rating [1, 21]: 6
- Bedstraw plant response rating [1, 22]: 8
- Plant response rating, Blackgrass [2, 23]: 5
- Blackgrass plant response rating [2, 17]: 5
- Blackgrass plant response rating [2, 18]: 5
- Blackgrass plant response rating [2, 19]: 9
- Blackgrass plant response rating [2, 20]: 8
- Blackgrass plant response rating [2, 21]: 9
- Blackgrass plant response rating [2, 24]: 5
- Blackgrass plant response rating [2, 22]: 10
- Plant response rating, B. signalgrass [3, 23]: 0
- B. signalgrass plant response rating [3, 17]: 3
- B. signalgrass plant response rating ([3]; Preemergence, Rate 62 g/ha, scale of 0 to 10 where 0 is no effect and 10 is complete control): 0
- B. signalgrass plant response rating [3, 19]: 9
- B. signalgrass plant response rating [3, 21]: 9
- B. signalgrass plant response rating [3, 24]: 5
- B. signalgrass plant response rating ([3]; Rate 500 g/ha, Postemergence, scale 0 to 10, 0 is no effect, 10 is complete control): 5
- B. signalgrass plant response rating [3, 22]: 8
- Plant response rating, Cocklebur [4, 23]: 0
- Cocklebur plant response rating [4, 17]: 0
- Cocklebur plant response rating [4, 18]: 3
- Cocklebur plant response rating [4, 19]: 0
- Cocklebur plant response rating [4, 20]: 0
- Cocklebur plant response rating [4, 21]: 0
- Cocklebur plant response rating [4, 24]: 1
- Cocklebur plant response rating [4, 22]: 0
- Plant response rating, Corn [5, 23]: 0
- Corn plant response rating [5, 17]: 0
- Corn plant response rating [5, 18]: 2
- Corn plant response rating [5, 19]: 0
- Corn plant response rating [5, 20]: 0
- Corn plant response rating [5, 21]: 0
- Corn plant response rating [5, 24]: 0
- Corn plant response rating [5, 22]: 0
- Plant response rating, Crabgrass [6, 23]: 2
- Crabgrass plant response rating [6, 17]: 5
- Crabgrass plant response rating [6, 18]: 9
- Crabgrass plant response rating [6, 19]: 10
- Crabgrass plant response rating [6, 20]: 9
- Crabgrass plant response rating [6, 21]: 9
- Crabgrass plant response rating [6, 24]: 8
- Crabgrass plant response rating [6, 22]: 9
- Plant response rating, Giant foxtail [7, 23]: 6
- Giant foxtail plant response rating [7, 17]: 8
- Giant foxtail plant response rating [7, 18]: 9
- Giant foxtail plant response rating [7, 19]: 9
- Giant foxtail plant response rating [7, 20]: 9
- Giant foxtail plant response rating [7, 21]: 9
- Giant foxtail plant response rating [7, 24]: 9
- Giant foxtail plant response rating [7, 22]: 9
- Plant response rating, Morningglory [8, 23]: 2
- Morningglory plant response rating [8, 17]: 7
- Morningglory plant response rating [8, 18]: 7
- Morningglory plant response rating [8, 19]: 0
- Morningglory plant response rating [8, 20]: 0
- Morningglory plant response rating [8, 21]: 0
- Morningglory plant response rating [8, 24]: 7
- Morningglory plant response rating [8, 22]: 5
- Plant response rating, Redroot pigweed [9, 23]: 0
- Redroot pigweed plant response rating [9, 17]: 0
- Redroot pigweed plant response rating [9, 18]: 8
- Redroot pigweed plant response rating [9, 19]: 10
- Redroot pigweed plant response rating [9, 20]: 8
- Redroot pigweed plant response rating [9, 21]: 9
- Redroot pigweed plant response rating [9, 24]: 3
- Redroot pigweed plant response rating [9, 22]: 10
- Plant response rating, Rape [10, 23]: 0
- Rape plant response rating [10, 17]: 0
- Rape plant response rating [10, 18]: 3
- Rape plant response rating [10, 19]: 6
- Rape plant response rating [10, 20]: 0
- Rape plant response rating [10, 21]: 5
- Rape plant response rating [10, 24]: 0
- Rape plant response rating [10, 22]: 9
- Plant response rating, Soybean [11, 23]: 2
- Soybean plant response rating [11, 18]: 5
- Soybean plant response rating [11, 19]: 0
- Soybean plant response rating [11, 20]: 0
- Soybean plant response rating [11, 21]: 0
- Soybean plant response rating [11, 24]: 3
- Soybean plant response rating [11, 22]: 0
- Plant response rating, Sugarbeets [12, 23]: 0
- Sugarbeets plant response rating [12, 18]: 4
- Sugarbeets plant response rating [12, 19]: 3
- Sugarbeets plant response rating [12, 20]: 0
- Sugarbeets plant response rating [12, 21]: 0
- Sugarbeets plant response rating [12, 24]: 2
- Sugarbeets plant response rating [12, 22]: 6
- Plant response rating, Velvetleaf [13, 23]: 0
- Velvetleaf plant response rating [13, 18]: 2
- Velvetleaf plant response rating [13, 19]: 1
- Velvetleaf plant response rating [13, 20]: 0
- Velvetleaf plant response rating [13, 21]: 1
- Velvetleaf plant response rating [13, 24]: 0
- Velvetleaf plant response rating [13, 22]: 3
- Plant response rating, Wheat [14, 23]: 0
- Wheat plant response rating [14, 18]: 3
- Wheat plant response rating [14, 19]: 5
- Wheat plant response rating [14, 20]: 0
- Wheat plant response rating [14, 21]: 0
- Wheat plant response rating [14, 24]: 4
- Wheat plant response rating [14, 22]: 7
- Plant response rating, Wild oats [15, 23]: 0
- Wild oats plant response rating [15, 18]: 1
- Wild oats plant response rating [15, 19]: 9
- Wild oats plant response rating [15, 20]: 2
- Wild oats plant response rating [15, 21]: 8
- Wild oats plant response rating [15, 22]: 9
- Plant response rating, Nutsedge [16, 23]: 0
- Nutsedge plant response rating [16, 17]: 0
- Nutsedge plant response rating [16, 18]: 6
- Nutsedge plant response rating [16, 20]: 0
- Nutsedge plant response rating [16, 24]: 3
- Nutsedge plant response rating [16, 22]: 5
